Laboratory results as given in patent publication US10428026B2, “Pyridinone dicarboxamide for use as bromodomain inhibitors” (GlaxoSmithKline Intellectual Property (No.2) Limited, priority 2015, dated 2019).

Assays:
[1] = biological target: T1, BRD4 BD1 (Homo sapiens, UniProt O60885, Y390A); assay: BRD4 BD1 TR-FRET competition assay; assay type: binding; details: mean of n determinations; read-out: mean pIC50 in the BRD4 BD1 TR-FRET assay (converted)
T1 construct: BRD4 (1-477) (Y97A) and (Y390A); made in house; host or cells: E. coli (pET15b vector)

[2] = biological target: T2, BRD4 BD2 (Homo sapiens, UniProt O60885, Y97A); assay: BRD4 BD2 TR-FRET competition assay; assay type: binding; details: for fold selective for BRD4 BD2 over BRD4 BD1: derived from the log unit selectivity; for selectivity for BRD4 BD2 over BRD4 BD1 (BRD4 BD2 pIC50 - BRD4 BD1 pIC50): in at least one of the TR-FRET assays; for IC50: mean of n determinations, read-out: mean pIC50 in the BRD4 BD2 TR-FRET assay (converted)
T2 construct: BRD4 (1-477) (Y97A) and (Y390A); made in house; host or cells: E. coli (pET15b vector)

[3] = system: BET family (BRD2, BRD3, BRD4 and BRDT) mutant tandem bromodomain proteins; assay: Fluorescence Polarisation binding of Reference Compound X to single and double mutant tandem BET proteins; parameters: species or system Human
Protocol: The competition of the compounds of formula (I) with Reference Compound X for binding to the BET family (BRD2, BRD3, BRD4 and BRDT) was assessed using protein truncates spanning both bromodomain 1 (BD1) and bromodomain 2 (BD2). In order to monitor differential binding to either BD1 or BD2, single residue mutations of key tyrosines to alanine were made in the acetyl lysine binding pockets. To validate this approach, a double residue mutant tandem domain protein was produced for each of the BET family members. Utilising a Fluorescence Polarisation approach, binding affinities for each of the single and double mutants for Reference Compound X were determined. […] The affinities of the single mutated bromdomain tandem proteins for Reference Compound X were equi-potent with the corresponding non-mutated BET protein. […] In the TR-FRET competition assay, Reference Compound X is used at a concentration that is equivalent to the Kd for the non-mutated bromodomain, which ensures that no binding at the mutated bromodomain is detected. […]

Row | Structure (SMILES) | IC50 [1] [µM] | fold selective for BRD4 BD2 over BRD4 BD1 [2] | selectivity for BRD4 BD2 over BRD4 BD1 (BRD4 BD2 pIC50 - BRD4 BD1 pIC50) [2] [log unit] | IC50 [2] [nM] | fold reduction in Kd (affinity) of double mutant tandem proteins for Reference Compound X ([3]; double residue mutant versus non mutated, wild type tandem BET proteins) [fold] | fold change of Kd of the interaction between the mutated bromodomain and Reference Compound X ([3]; single mutations of Tyrosine to Alanine) [fold]
1 | CNC(=O)c1cc(C(=O)N[C@H]2C[C@@H]2C)cn(Cc2ccccc2)c1=O (single isomer, unassigned) [Example 102] | 7.94 | at least 100 fold | 2.5 | 25.1 | – | –
2 | CNC(=O)c1cc(C(=O)N[C@H]2C[C@@H]2C)cn(Cc2cccc(OCCO)c2)c1=O [Example 153, 1-(3-(2-Hydroxyethoxy)benzyl)-N3-methyl-N5-((1S,2S)-2-methylcyclopropyl)-2-oxo-1,2-dihydropyridine-3,5-dicarboxamide] | 31.6 | at least 100 fold | 2.7 | 63.1 | – | –
3 | COc1ccc2c(c1)C(c1ccc(Cl)cc1)=N[C@@H](CC(=O)NCCCCCNC(=O)CCCCCC1(C)/C(=C/C=C/C=C/C3=[N+](CCCCS(=O)(=O)O)c4ccc(S(=O)(=O)O)cc4C3(C)C)N(CCCCS(=O)(=O)[O-])c3ccc(S(=O)(=O)O)cc31)c1nnc(C)n1-2 (stereo partly shown) [Reference Compound X] | – | – | – | – | > 1000 | > 1000
